In patent US5523289A, “Pharmaceutical composition” (Abbott Laboratories, priority 1993, dated 1996):

Assays:
[1] = system: salt depleted dogs; experiment: Blood pressure in salt depleted dogs after oral or intravenous administration; format: in vivo
[2] = dog, in vivo, po

SMILES: CC(C)C[C@H](O)[C@H](O)[C@H](CC1CCCCC1)NC(=O)[C@H](Cc1cscn1)NC(=O)[C@H](Cc1ccccc1)CS(=O)(=O)N1CCN(C)CC1 [compound I, (2S)-2-Benzyl-3-(1-methyl-piperazin-4-ylsulfonyl)propionyl-(L)-(4-Thiazolyl)Ala Amide of (2S, 3R, 4S)-2-Amino-1-cyclohexyl-3,4-dihydroxy-6-methylheptane]
- effect on blood pressure [1]: reduces blood pressure
- times more bioavailable orally as a tablet with organic polycarboxylic acid compared to tablet or powder filled capsule without the acid [2]: ≤ 7.8 times
